We go through 17 compounds from article PMC11876671, “Investigating blood–brain barrier penetration and neurotoxicity of natural products for central nervous system drug development” (Scientific Reports, 2025).

Data set [1] concerns GFP-labeled iPSC-derived human cortical glutamatergic neurons. The settings on record: for effect on number of objects: in words; for AC50: read-out: Viability AC50 (48hr).
The nature of another data set: in vitro. As to conditions: PAMPA, PAMPA-BBB Pe. In general terms: PAMPA measures passive passage across an artificial lipid membrane.
Data set [2] has as its system GFP-labeled iPSC-derived human cortical glutamatergic neurons. The experiment in a line: cells. In kind it is cell-based. The settings on record: for inhibition of cortical neurite outgrowth (total neurite length): 24 and 48 h treatment, in words.
The test system of a further data set is offspring neurogenesis. The settings on record: rat, in vivo, po; cited from earlier work.
In data set [3] the test system is GFP-labeled iPSC-derived human cortical glutamatergic neurons. The experiment in a line: cells. As to conditions: Neuron, 48 h.
In data set [4] the test system is human glial and neuroblastoma cell lines. As to conditions: malignant glioma tumor cells; cited from earlier work.
In data set [5] the test system is glioblastoma multiforme (GBM). The settings on record: mouse, in vivo, ip; cited from earlier work.
Setting [6] is: Table S1, 60 min, room temperature, 0.05 mM.
Where [7] appears, read: Homo sapiens, Neuron, rounded values, read-out: AC50 (neurite outgrowth inhibition).
Setting [8] is: Homo sapiens, Neuron, total neurite length, 48 h treatment, read-out: TNL AC50 (48 h).
Setting [9] is: Table 1, 60 min, room temperature, 0.05 mM.
Setting [10] is: Table S2: compounds exhibiting moderate to high PAMPA-BBB permeability.
[11] abbreviates: read-out: Viability AC50 (48 h).
Setting [12] is: Homo sapiens, Neuron, Table S1, total neurite length, 48 hr, head prints no unit, µM per Table 1 and Fig. 5, read-out: TNL AC50 (48 hr).
The mark [13] stands for this setting: read-out: Viability AC50 (48hr).

Where two headings read alike, the source gives them in different places.

One may read the Papp as a coefficient for how fast a substance crosses the barrier. A high value points to ready permeation. Usually AC50 stands for the concentration giving half of the maximal activity seen.

In the case of `COc1cc2c(c3oc4cccc(O)c4c(=O)c13)[C@@H]1C=CO[C@@H]1O2` [Sterigmatocystin], the “Viability AC50 (48 h)” value in data set [1] was “inactive”. In “in vitro”, this compound showed a Papp of 221 ×10⁻⁶ cm/s. Moreover, the AC50 amounted to 2.3 µM in data set [2] (read-out: AC50 (neurite outgrowth inhibition)), 2.32 µM in data set [2] (read-out: TNL AC50 (48 h)) and 2.32 µM in data set [2] (read-out: TNL AC50 (48 hr)). Also, under “PAMPA”, the “PAMPA-BBB Pe” value is listed as 221 10 × 10^− 6 cm/sec. Further, the “adverse effects on offspring neurogenesis” value with offspring neurogenesis is recorded as “no adverse effects”.

Turning to `CC1=CC(=O)c2c(O)cccc2C1=O` [Plumbagin], in data set [1] (48 h treatment), the “effect on number of objects” value is “minimal effects”. Also, the Papp in the data set “in vitro” (setting [6]) was determined as 68.8 ×10⁻⁶ cm/s. Also, the “inhibition of cortical neurite outgrowth (total neurite length)” value in data set [2] is “inhibited cortical neurite outgrowth”. In addition, the values for the AC50 in data set [2] (setting [7]), in data set [2] (setting [8]) and in data set [3] (setting [11]) were 0.9 µM, 0.927 µM and 1320 nM, respectively. The “PAMPA-BBB Pe” value was 68.8 10 × 10^− 6 cm/sec under setting [9] and 69 10^-6 cm/sec under setting [10].

Regarding `C/C=C(\C)C(=O)N[C@@H](c1ccccc1)[C@@H](O)C(=O)O[C@H]1C[C@@]2(O)[C@@H](OC(=O)c3ccccc3)[C@@H]3[C@]4(OC(C)=O)CO[C@@H]4C[C@H](O)[C@@]3(C)C(=O)[C@H](OC(C)=O)C(=C1C)C2(C)C` [Cephalomannine], the “Viability AC50 (48 h)” value in data set [1] (48 h treatment) was “inactive”. In the data set “in vitro” (setting [6]), this compound had a Papp of 78.6 ×10⁻⁶ cm/s. The AC50 in data set [2] (setting [7]) is 0.7 µM; in data set [2] (setting [8]), 0.688 µM. Further, the “PAMPA-BBB Pe” value is recorded as 78.57 10 × 10^− 6 cm/sec under setting [9] and 79 10^-6 cm/sec under setting [10]. Besides, in data set [4], the “cytotoxicity relative to taxol (less cytotoxic)” value is ~ 35%.

Consider `C/C(=C\c1csc(C)n1)[C@@H]1C[C@@H]2O[C@]2(C)CCC[C@H](C)[C@H](O)[C@@H](C)C(=O)C(C)(C)[C@@H](O)CC(=O)O1` [Patupilone], for which the “Viability AC50 (48 h)” value in data set [1] (48 h treatment) is “inactive”. In addition, the Papp in “in vitro” (setting [6]) came out at 10.5 ×10⁻⁶ cm/s; in “in vitro” (setting [10]) it was 11 ×10⁻⁶ cm/s. Also, the values for the AC50 in data set [2] (setting [12]) and in data set [2] (setting [8]) were 0.0068 µM and 0.007 µM, respectively. Also, the “PAMPA-BBB Pe” value under setting [9] is 10.52 10 × 10^− 6 cm/sec.

Take 2 ,4 -DIHYDROXYCHALCONE: the AC50 in data set [1] (Table S1, 48 hr, head prints no unit, µM per Table 1 and Fig. 5) is 20.9 µM; in data set [2] (Table S1, total neurite length, 48 hr, head prints no unit, µM per Table 1 and Fig. 5, read-out: TNL AC50 (48 hr)), 16.9 µM. Besides, the “PAMPA-BBB Pe” value under setting [6] is on record as 222.92 10^-6 cm/sec.

For the compound `COc1cc(/C=C/C(=O)N2CCC=CC2=O)cc(OC)c1OC` [Piperlongumine], the “Viability AC50 (48 h)” value in data set [1] (48 h treatment) is “Inactive”. Further, the Papp in “in vitro” (setting [6]) was 90.3 ×10⁻⁶ cm/s; in “in vitro” (setting [10]), 90 ×10⁻⁶ cm/s. For the same compound, the AC50 in data set [2] (setting [8]) is 3.74 µM. Moreover, under setting [9], the “PAMPA-BBB Pe” value is reported as 90.26 10 × 10^− 6 cm/sec.

For the compound `COc1cc(-c2cc(=O)c3c(O)cc(O)cc3o2)ccc1O` [Chrysoeriol], in data set [1] (48 h treatment), the “Viability AC50 (48 h)” value was “inactive”. Also, in “in vitro” (setting [6]), the Papp was found to be 179 ×10⁻⁶ cm/s. Besides, the AC50 stood at 2.2 µM in data set [2] (setting [7]) and 2.22 µM in data set [2] (setting [8]). Further, the “PAMPA-BBB Pe” value under setting [9] is listed as 178.56 10 × 10^− 6 cm/sec.

`CC[C@]1(O)C[C@H]2CN(CCc3c([nH]c4ccccc34)[C@@](C(=O)OC)(c3cc4c(cc3OC)N(C=O)[C@H]3[C@@](O)(C(=O)OC)[C@H](OC(C)=O)[C@]5(CC)C=CCN6CC[C@]43[C@@H]65)C2)C1` [Vincristine, reference compound]: the AC50 was determined as 37.2 µM in data set [1] and 30.4 µM in data set [2] (read-out: TNL AC50 (48 hr)). The “PAMPA-BBB Pe” value (PAMPA) is on record as 21.19 10^-6 cm/sec.

`COc1ccc(/C=C/C(=O)c2ccc(O)cc2O)cc1` [2',4'-DIHYDROXY-4-METHOXYCHALCONE] returned a Papp in “in vitro” (setting [6]) of 357 ×10⁻⁶ cm/s. The AC50 came to 37.2 µM in data set [2] (setting [12]) and 21500 nM in data set [3] (setting [13]). Besides, the “PAMPA-BBB Pe” value under setting [10] is 357 10^-6 cm/sec.

As for `COc1ccc2c(c[n+](C)c3c4cc5c(cc4ccc23)OCO5)c1OC` [Chelerythrine chloride], the Papp in “in vitro” (setting [6]) turned out to be 94.7 ×10⁻⁶ cm/s. For the same compound, the AC50 in data set [2] (setting [12]) came out at 2.79 µM; in data set [2] (setting [8]) it was 2.79 µM; in data set [3] (setting [11]), 2190 nM; in data set [3] (setting [13]), 2190 nM. Also, the “PAMPA-BBB Pe” value under setting [9] is on record as 94.67 10 × 10^− 6 cm/sec.

The compound `CC(=O)O[C@H]1[C@H]2O[C@]23[C@@H]2CC[C@@H]4C[C@@H](O)CC[C@]4(C)[C@H]2CC[C@]3(C)[C@H]1c1ccc(=O)oc1` [Cinobufagin] came in with a Papp in the data set “in vitro” of 45.4 ×10⁻⁶ cm/s. The AC50 in data set [2] (Homo sapiens, Neuron, 48 h, read-out: TNL AC50 (48 h)) was found to be 0.618 µM; in data set [2] (Homo sapiens, Neuron, read-out: AC50 (neurite outgrowth inhibition)) it was 0.6 µM; in data set [3] (setting [11]) it was 93 nM. For the same compound, the “decrease in luminescence intensity of the brain tumor” value in data set [5] is recorded as 70%.

In “in vitro” (setting [6]), `CC(/C=C/C(=O)NO)=C\[C@@H](C)C(=O)c1ccc(N(C)C)cc1` [Trichostatin A] displayed a Papp of 54.7 ×10⁻⁶ cm/s. For the same compound, the AC50 in data set [2] (setting [7]) amounted to 1.7 µM; in data set [2] (setting [8]), 1.66 µM; in data set [3] (setting [11]) it was 472 nM. Moreover, the “PAMPA-BBB Pe” value is reported as 54.74 10 × 10^− 6 cm/sec under setting [9] and 55 10^-6 cm/sec under setting [10].

On to `O=c1oc2c(O)c(O)cc3c(=O)oc4c(O)c(O)cc1c4c23` [Ellagic acid], for which the “effect on number of objects” value in data set [1] (48 h treatment) is “minimal effects”. In the data set “in vitro” (setting [6]), the Papp came out at 120 ×10⁻⁶ cm/s. For the same compound, in data set [2], the “inhibition of cortical neurite outgrowth (total neurite length)” value is given as “inhibited cortical neurite outgrowth”. Also, the AC50 was 3.1 µM in data set [2] (setting [7]), 3.05 µM in data set [2] (setting [8]) and 4000 nM in data set [3] (setting [11]). In addition, the “PAMPA-BBB Pe” value is listed as 119.5 10 × 10^− 6 cm/sec under setting [9] and 120 10^-6 cm/sec under setting [10].

Take `O=c1cc(-c2ccc(O)cc2)oc2cc(O)cc(O)c12` [Apigenin]: the Papp in “in vitro” (setting [6]) amounted to 36.2 ×10⁻⁶ cm/s. The AC50 in data set [2] (setting [12]) came to 35.9 µM; in data set [3] (setting [13]), 37200 nM. The “PAMPA-BBB Pe” value under setting [10] is reported as 36 10^-6 cm/sec.

For `COc1ccc(-c2cc(=O)c3ccccc3o2)cc1OC` [3’,4’-dimethoxyflavone], the “Viability AC50 (48 h)” value in data set [1] (48 h treatment) is “inactive”. Also, the apparent permeability (Papp) in the data set “in vitro” (setting [6]) is 249 ×10⁻⁶ cm/s. The AC50 in data set [2] (setting [7]) stood at 0.7 µM; in data set [2] (setting [8]), 0.759 µM. Also, the “PAMPA-BBB Pe” value is, setting by setting: under setting [9], 249.21 10 × 10^− 6 cm/sec; under setting [10], 249 10^-6 cm/sec.

`CN[C@@H]1C[C@H]2O[C@@](C)([C@@H]1OC)n1c3ccccc3c3c4c(c5c6ccccc6n2c5c31)C(=O)N[C@H]4O` [7-hydroxystaurosporine (UCN-01), 7-hydroxystaurosporine] had a Papp in “in vitro” (setting [6]) of 158 ×10⁻⁶ cm/s. Further, the AC50 came to 5.74 µM in data set [2] (setting [12]) and 7920 nM in data set [3] (setting [13]). Besides, under setting [10], the “PAMPA-BBB Pe” value is 158 10^-6 cm/sec.

On to `O=c1cc(N2CCOCC2)oc2c(-c3cccc4c3sc3ccccc34)cccc12` [NU-7441, 8-(4-DIBENZOTHIENYL)-2-(4-MORPHOLINYL)-4H-1-BENZOPYRAN-4-ONE, reference compound], for which the Papp in the data set “in vitro” (setting [6]) was 102 ×10⁻⁶ cm/s. For the same compound, the AC50 in data set [2] (setting [12]) came to 2.85 µM; in data set [2] (setting [8]) it was 2.85 µM; in data set [3] (setting [11]), 7600 nM; in data set [3] (setting [13]), 7600 nM. Besides, under setting [9], the “PAMPA-BBB Pe” value was 101.9 10 × 10^− 6 cm/sec.
